Among the test systems are NCI/ADR-RES ovarian; SK-OV-3 ovarian; HS 578T breast; OVCAR-8 ovarian; NCI-H23 lung; NCI-H226 lung; CAKI-1 renal; IGROV1 ovarian; SK-MEL-5 melanoma; SR leukemia.
What all share (test): DTP human tumour cell line panel, 48 h

TGI and GI50 data for 9 compounds are collected here from PubChem BioAssay (NCI).

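Values below derive from 48-hour exposures of cells grown in 96-well plates, with endpoints linearly interpolated between the two concentrations bracketing the appropriate inhibition level. GI50 = concentration required for 50% inhibition of growth. At the TGI there is no net growth.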

Consider `C=C1C(=O)OC2C1CC(OC(C)=O)/C(C)=C/CCC1(C)OC21` (stereo unspecified), for which the TGI with NCI/ADR-RES ovarian, in the experiment on SK-OV-3 ovarian, in the experiment on HS 578T breast, in the experiment with OVCAR-8 ovarian, with NCI-H23 lung and in the experiment with NCI-H226 lung was above 100 µM in each case. Further, the TGI in the experiment with CAKI-1 renal, in the experiment with IGROV1 ovarian and in the experiment with SK-MEL-5 melanoma was above 100 µM throughout.

Turning to `COc1cc(/C=C2\CCC/C(=C\c3ccc(OCC4CO4)c(OC)c3)C2=O)ccc1OCC1CO1` (stereo unspecified), the GI50 – broadly, the concentration that inhibits growth by half – is 4.86 µM with NCI/ADR-RES ovarian; 3.54 µM in the experiment with SK-OV-3 ovarian; 4.22 µM in the experiment on HS 578T breast; 2.1 µM in the experiment on OVCAR-8 ovarian; 2.8 µM with NCI-H23 lung; 3.3 µM in the experiment with CAKI-1 renal. Further, the GI50 with IGROV1 ovarian was 2.87 µM; with SR leukemia, 2.29 µM; in the experiment on SK-MEL-5 melanoma, 1.74 µM. The TGI – broadly, the concentration giving total growth inhibition – in the experiment with NCI/ADR-RES ovarian was above 100 µM; in the experiment with SK-OV-3 ovarian, 10.7 µM; in the experiment on HS 578T breast it was above 100 µM; in the experiment on OVCAR-8 ovarian, 9.11 µM; in the experiment on NCI-H23 lung, 9.71 µM; in the experiment with CAKI-1 renal, above 100 µM. Besides, the TGI with IGROV1 ovarian was 7.07 µM; with SR leukemia it was above 100 µM; with SK-MEL-5 melanoma, 3.52 µM.

With `CNCCn1c(=O)c2cc(OC)c(OC)cc2c2cnc3cc4c(cc3c21)OCO4`, the GI50 is 0.032 µM in the experiment with NCI/ADR-RES ovarian; below 0.0104 µM in the experiment with SK-OV-3 ovarian; 1.68 µM in the experiment on HS 578T breast; below 0.01 µM with OVCAR-8 ovarian; below 0.0112 µM in the experiment with NCI-H23 lung; below 0.01 µM in the experiment on CAKI-1 renal. Moreover, the GI50 in the experiment on IGROV1 ovarian is 0.0276 µM; with SR leukemia, below 0.01 µM; with SK-MEL-5 melanoma, 0.01 µM. Also, the TGI with NCI/ADR-RES ovarian amounted to 1.51 µM; in the experiment with SK-OV-3 ovarian, 1.82 µM; in the experiment on HS 578T breast it was 4.44 µM; in the experiment on OVCAR-8 ovarian, 1.34 µM; with NCI-H23 lung, 1.33 µM; in the experiment on CAKI-1 renal it was 0.128 µM. The values for the TGI in the experiment with IGROV1 ovarian and in the experiment on SK-MEL-5 melanoma were 1.76 µM and 0.0254 µM, respectively.

On to `COc1cc(/C=C/C(=O)C(C(=O)/C=C/c2ccc(OC(=O)CCNC34CC5CC(CC(C5)C3)C4)c(OC)c2)C(=O)CCNC23CC4CC(CC(C4)C2)C3)ccc1OC(=O)CCNC12CC3CC(CC(C3)C1)C2` (stereo unspecified), for which the GI50 in the experiment on NCI/ADR-RES ovarian is 4.82 µM; in the experiment with SK-OV-3 ovarian it was 5.44 µM; in the experiment with HS 578T breast, 2.1 µM; in the experiment on OVCAR-8 ovarian, 1.62 µM; with NCI-H23 lung, 5.02 µM; in the experiment with NCI-H226 lung, 3.21 µM. The GI50 is 5.72 µM in the experiment on CAKI-1 renal and 3.36 µM in the experiment on SK-MEL-5 melanoma. Besides, the TGI is 90.2 µM in the experiment with NCI/ADR-RES ovarian; 36.3 µM in the experiment on SK-OV-3 ovarian; 6.84 µM in the experiment with HS 578T breast; 5.18 µM in the experiment on OVCAR-8 ovarian; above 100 µM in the experiment with NCI-H23 lung; 12.5 µM with NCI-H226 lung. For the same compound, the values for the TGI in the experiment with CAKI-1 renal and in the experiment on SK-MEL-5 melanoma were above 100 µM and 13.4 µM, respectively.

For the compound `CNC(C)[C@H]1CCC2C3CC=C4C(=O)[C@@H](NC(=O)C=C(C)C)CC[C@]4(C)C3CC[C@@]21C` (stereo partly specified), the GI50 is 3.44 µM with NCI/ADR-RES ovarian; 2.75 µM with SK-OV-3 ovarian; 1.87 µM in the experiment with HS 578T breast; 3.91 µM in the experiment on OVCAR-8 ovarian; 2.37 µM with NCI-H23 lung; 2.53 µM with NCI-H226 lung. The values for the GI50 in the experiment on CAKI-1 renal, in the experiment on IGROV1 ovarian and in the experiment with SK-MEL-5 melanoma were 1.68 µM, 3.19 µM and 1.14 µM, respectively. In addition, the TGI amounted to 15 µM in the experiment on NCI/ADR-RES ovarian; 9.5 µM in the experiment on SK-OV-3 ovarian; 6.82 µM with HS 578T breast; 20.2 µM in the experiment with OVCAR-8 ovarian; 12.2 µM in the experiment with NCI-H23 lung; 14.1 µM in the experiment with NCI-H226 lung. Also, the TGI was 5.53 µM in the experiment with CAKI-1 renal, 11.8 µM in the experiment on IGROV1 ovarian and 2.39 µM in the experiment on SK-MEL-5 melanoma.

`COc1cc(/C=C/C(=O)Oc2ccccc2)ccc1C(=O)O/C=C/c1ccccc1`: the TGI in the experiment with NCI/ADR-RES ovarian, in the experiment on SK-OV-3 ovarian, with HS 578T breast, in the experiment on OVCAR-8 ovarian, in the experiment with NCI-H23 lung and in the experiment on NCI-H226 lung was above 100 µM in each case. Besides, the TGI in the experiment on CAKI-1 renal, in the experiment with IGROV1 ovarian and in the experiment on SK-MEL-5 melanoma was above 100 µM throughout.

For the compound `COC(=O)C(=O)CC(=O)c1cccc(OC)c1`, the concentration for total growth inhibition (TGI) with NCI/ADR-RES ovarian, in the experiment on SK-OV-3 ovarian, in the experiment on HS 578T breast, with OVCAR-8 ovarian, in the experiment on NCI-H23 lung and in the experiment with NCI-H226 lung was above 100 µM in each case. Besides, the TGI in the experiment on CAKI-1 renal and in the experiment with SK-MEL-5 melanoma was above 100 µM each time.

As for `COc1cc2c3c(n(CCCN(C)CCO)c(=O)c2cc1OC)-c1cc2c(cc1C3=O)OCO2`, the GI50 with NCI/ADR-RES ovarian was 3.21 µM; in the experiment with SK-OV-3 ovarian, 11 µM; with HS 578T breast, above 61.3 µM; in the experiment with OVCAR-8 ovarian, 13.9 µM; with NCI-H23 lung it was 0.839 µM; in the experiment on NCI-H226 lung it was 1.7 µM. The GI50 in the experiment with CAKI-1 renal was 0.936 µM; in the experiment on IGROV1 ovarian, 2.47 µM; in the experiment on SK-MEL-5 melanoma, 4.77 µM. Further, the TGI is 31.5 µM in the experiment with NCI/ADR-RES ovarian; above 100 µM in the experiment on SK-OV-3 ovarian; above 100 µM with HS 578T breast; above 78.8 µM with OVCAR-8 ovarian; above 24.6 µM with NCI-H23 lung; 26.5 µM in the experiment with NCI-H226 lung. Besides, the TGI in the experiment on CAKI-1 renal is above 100 µM; in the experiment on IGROV1 ovarian, above 55.6 µM; in the experiment on SK-MEL-5 melanoma it was 33.5 µM.

Regarding `O=C1/C(=C/N2N=C(c3ccc4ccccc4c3)CC2c2ccccc2O)SC(=S)N1c1cccnc1` (stereo unspecified), the GI50 was 3.43 µM in the experiment with NCI/ADR-RES ovarian; 5.95 µM in the experiment on SK-OV-3 ovarian; 2.55 µM with HS 578T breast; 2.36 µM in the experiment with OVCAR-8 ovarian; 3.03 µM with NCI-H23 lung; 4.9 µM in the experiment on NCI-H226 lung. The values for the GI50 in the experiment with CAKI-1 renal, in the experiment on IGROV1 ovarian and in the experiment with SK-MEL-5 melanoma were 1.03 µM, 1.47 µM and 3.01 µM, respectively. Besides, the TGI in the experiment on NCI/ADR-RES ovarian, in the experiment on SK-OV-3 ovarian, with HS 578T breast, in the experiment with OVCAR-8 ovarian, with NCI-H23 lung and in the experiment on NCI-H226 lung was above 100 µM each time. The values for the TGI in the experiment on CAKI-1 renal, in the experiment with IGROV1 ovarian and in the experiment with SK-MEL-5 melanoma were above 100 µM, above 100 µM and 39 µM, respectively.
